Usually IC50 stands for the midpoint of a concentration-inhibition curve. A word on the EC50: it is the concentration giving half of the maximal effect. As a reminder, the Ki is the equilibrium dissociation constant of an inhibitor or competing ligand from its target. A word on the Kd: it is the equilibrium constant for the complex coming apart. By CC50 is commonly meant the concentration giving 50% cytotoxicity. Broadly, the DC50 is the concentration giving 50% degradation.

The values that follow come from ChEMBL document CHEMBL4732103, “Development of Indoleamine 2,3-Dioxygenase 1 Inhibitors for Cancer Therapy and Beyond: A Recent Perspective” (J Med Chem, 2020).

For data set [1], the system named is HEK-293T. The data set is described as follows: Cytotoxicity against HEK293T cells. It is filed as cell-based. The following applies: Homo sapiens.
Data set [2] deals with T1, Indoleamine 2,3-dioxygenase 1 (Homo sapiens, UniProt P14902). Put plainly: Inhibition of IDO1 in human HeLa cells. It is filed as cell-based.
The target of data set [3] is T1, Indoleamine 2,3-dioxygenase 1. The data set is described as follows: Inhibition of human IDO1.
The target is the same in data set [4]. The data set is described as follows: Inhibition of human IDO1 incubated for 60 mins using L-tryptophan as substrate by absorbance method.
Data set [5] has the same target. The data set is described as follows: Inhibition of human N-terminal His-tagged IDO1 expressed in Escherichia coli M15 incubated for 1 hr by UV-Vis spectrophotometric method.
The target is the same in data set [6]. The data set is described as follows: Inhibition of human IDO1 in IFN-stimulated human MDA-MB-231 cells preincubated for 48 hrs followed by L-tryptophan addition and measured after 5 hrs by UV-Vis spectrophotometric method. Type of data set: cell-based.
For data set [7] the target is unchanged. Put plainly: Inhibition of recombinant human IDO1 expressed in Escherichia coli BL21(DE3) incubated for 15 mins by Dixon plot analysis.
The target in data set [8] is Tryptophan 2,3-dioxygenase (Homo sapiens, UniProt P48775). Put plainly: Inhibition of recombinant human TDO expressed in Escherichia coli Rosetta (DE3) pLysS incubated for 20 mins by Dixon plot analysis.
Data set [9] concerns the target T1, Indoleamine 2,3-dioxygenase 1. Put plainly: Inhibition of IDO1 in IFN-gamma stimulated human HeLa cells centrifuged for 10 mins.
Data set [10] has the same target. The data set is described as follows: Inhibition of IDO1 in IFN-gamma stimulated human HeLa cells.
Data set [11] has the same target. The data set is described as follows: Inhibition of human IDO1 using D-Trp as substrate by absorbance method.
Data set [12] has the same target. Put plainly: Inhibition of IDO1 in IFN-gamma stimulated human HeLa cells assessed as effect on kynurenine level incubated for 48 hrs by p-dimethylaminobenzaldehyde based assay.
The target is the same in data set [13]. Put plainly: Binding affinity to recombinant human IDO1 expressed in Escherichia coli BL21 incubated for 4 hrs by UV-Visible Spectroscopy.
Data set [14] has the same target. The data set is described as follows: Inhibition of IDO1 in IFN-gamma stimulated human HeLa cells assessed as effect on KYN level incubated for 48 hrs by rapidfire-mass spectrometry.
Data set [15] has the same target. The data set is described as follows: Inhibition of human 6His/FLAG-tagged/Avi/TEV-fused IDO1 expressed in Escherichia coli by absorbance method.
The target is the same in data set [16]. Put plainly: Inhibition of IDO1 (unknown origin).
For data set [17] the target is unchanged. Put plainly: Inhibition of IDO1 (unknown origin) by cell-based assay.
Data set [18] is described as follows: Inhibition of IDO1/TDO2 in human BT-549 cells assessed as suppression of kynurenine using L-tryptophan as substrate for 18 hrs by 4-(dimethylamino)benzaldehyde based absorbance method. The following applies: BT-549, 18 h. Type of data set: cell-based.
Data set [19] addresses T1, Indoleamine 2,3-dioxygenase 1. The data set is described as follows: Inhibition of IDO1 in human SK-OV-3 cells assessed as effect on KYN level using L-tryptophan as substrate incubated for 18 hrs by 4-(dimethylamino)benzaldehyde based absorbance method. Type of data set: cell-based.
Data set [20] has the same target. The data set is described as follows: Inhibition of human His6-tagged IDO1 expressed in Escherichia coli BL21 incubated for 90 mins using L-tryptophan as substrate by fluorescence assay.
Data set [21] can be described thus: Cytotoxicity against human HeLa cells incubated for 48 hrs by MTT assay. It is filed as cell-based. (Tetrazolium dyes change colour on reduction, which living cells bring about.)
Data set [22] deals with Protein cereblon/Indoleamine 2,3-dioxygenase 1 (Homo sapiens, UniProt P14902+Q96SW2). The data set is described as follows: Induction of CRBN-mediated IDO1 degradation in IFNgamma-stimulated human HeLa cells incubated for 24 hrs by Western blot analysis. (A western blot detects proteins with antibodies after separation by electrophoresis.)
The target of data set [23] is Indoleamine 2,3-dioxygenase 1 (Mus musculus, UniProt P28776). The data set is described as follows: Inhibition of mouse IDO1 expressed in mouse P1.HTR cells assessed as inhibition of Kyn production incubated for 16 hrs by HPLC analysis. It is filed as cell-based.
Data set [24] deals with T1, Indoleamine 2,3-dioxygenase 1. Put plainly: Inhibition of recombinant human IDO1 expressed in Escherichia coli BL21(DE3) assessed as effect on kynurenine level using L-tryptophan as substrate incubated for 1 hr by Ehrlich's reagent based assay.

T1 sequence (P14902 whole entry): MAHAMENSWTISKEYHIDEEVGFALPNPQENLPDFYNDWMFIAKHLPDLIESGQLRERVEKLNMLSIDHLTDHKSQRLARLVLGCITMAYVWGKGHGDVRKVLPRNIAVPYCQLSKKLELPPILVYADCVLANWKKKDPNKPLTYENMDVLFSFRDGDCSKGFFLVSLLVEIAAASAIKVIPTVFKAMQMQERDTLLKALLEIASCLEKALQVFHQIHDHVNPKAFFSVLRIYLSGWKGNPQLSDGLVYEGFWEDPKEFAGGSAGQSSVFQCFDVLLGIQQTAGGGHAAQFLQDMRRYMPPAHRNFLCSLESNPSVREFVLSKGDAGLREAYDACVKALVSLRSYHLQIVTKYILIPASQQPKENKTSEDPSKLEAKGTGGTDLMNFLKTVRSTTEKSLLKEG
Sequence of Tryptophan 2,3-dioxygenase (P48775 whole entry): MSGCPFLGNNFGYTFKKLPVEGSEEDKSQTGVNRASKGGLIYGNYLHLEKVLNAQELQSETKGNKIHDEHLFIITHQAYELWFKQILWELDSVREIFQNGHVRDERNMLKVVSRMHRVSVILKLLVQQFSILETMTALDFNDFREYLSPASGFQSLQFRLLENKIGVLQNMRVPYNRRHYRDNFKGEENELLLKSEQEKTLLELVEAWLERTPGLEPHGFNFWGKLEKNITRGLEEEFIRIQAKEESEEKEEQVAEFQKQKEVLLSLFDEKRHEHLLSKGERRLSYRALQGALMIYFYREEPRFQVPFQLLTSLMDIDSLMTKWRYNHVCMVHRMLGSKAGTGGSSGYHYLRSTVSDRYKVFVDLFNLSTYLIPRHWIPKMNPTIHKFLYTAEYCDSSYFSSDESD
Sequence of Indoleamine 2,3-dioxygenase 1 (Mus musculus, UniProt P28776) (P28776 whole entry): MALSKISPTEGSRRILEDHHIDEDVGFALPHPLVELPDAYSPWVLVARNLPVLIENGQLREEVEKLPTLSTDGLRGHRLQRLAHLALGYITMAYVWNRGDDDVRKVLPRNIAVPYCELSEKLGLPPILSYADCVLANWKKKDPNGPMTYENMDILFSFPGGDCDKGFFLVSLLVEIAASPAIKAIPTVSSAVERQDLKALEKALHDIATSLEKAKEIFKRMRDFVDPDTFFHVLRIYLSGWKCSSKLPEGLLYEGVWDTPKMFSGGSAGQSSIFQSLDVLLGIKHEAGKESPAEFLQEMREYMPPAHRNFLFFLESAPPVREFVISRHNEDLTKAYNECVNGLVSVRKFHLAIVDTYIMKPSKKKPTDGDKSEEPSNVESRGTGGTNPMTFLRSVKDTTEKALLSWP
Sequence of Protein cereblon/Indoleamine 2,3-dioxygenase 1 (P14902 whole entry): as the sequence (P14902 whole entry) above
Sequence of Protein cereblon/Indoleamine 2,3-dioxygenase 1 (Q96SW2 whole entry): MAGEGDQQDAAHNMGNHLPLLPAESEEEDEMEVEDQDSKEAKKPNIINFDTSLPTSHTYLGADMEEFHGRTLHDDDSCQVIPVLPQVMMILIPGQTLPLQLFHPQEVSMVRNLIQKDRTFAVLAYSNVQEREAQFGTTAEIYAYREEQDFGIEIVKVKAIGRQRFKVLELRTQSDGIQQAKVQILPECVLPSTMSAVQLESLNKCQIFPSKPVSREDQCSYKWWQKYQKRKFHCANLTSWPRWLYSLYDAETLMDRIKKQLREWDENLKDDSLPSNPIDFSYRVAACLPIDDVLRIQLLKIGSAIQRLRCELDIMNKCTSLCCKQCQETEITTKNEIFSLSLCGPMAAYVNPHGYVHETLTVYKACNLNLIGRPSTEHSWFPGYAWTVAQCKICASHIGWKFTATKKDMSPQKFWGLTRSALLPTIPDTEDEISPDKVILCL

Turning to `COC1=C(OC)C(=O)C(Nc2cccc(Br)c2)=CC1=O`, the IC50 in data set [1] worked out at 28000 nM; in data set [2], 11200 nM; in [3], 130 nM.

With `O=C(O)C[C@H]1CNC(=S)c2cc(Br)c(Br)n21`, in [4], inhibition was half-maximal at 92000 nM (IC50). Consider `NS(=O)(=O)NCCNC(=O)c1n[nH]nc1-c1ccc(F)cc1`, for which the IC50 in data set [5] amounted to 92 nM. In addition, in [6], the EC50 was 74 nM. Turning to `O=C(c1ccccc1)C(c1ccccc1)C1(O)C(=O)Nc2c(Cl)cc(Cl)cc21` (stereo not drawn), the Ki was 1000 nM in data set [7] and 4000 nM in data set [8]. In data set [9], `CC(C)CN(c1ccc(-c2c(C(=O)O)ccc3ccccc23)cc1NC(=O)Nc1ccc(Br)cc1F)C1CCCCC1` showed an IC50 of 2.6 nM. The compound `Nc1nonc1/C(=N/O)N1Cc2ccccc2C1` gave an IC50 in data set [10] of 1570 nM. In data set [5], `NC(=O)c1n[nH]nc1-c1ccc(F)c(F)c1` returned an IC50 of 110 nM. For the same compound, the EC50 in data set [6] is 74 nM. Compound `O=C(Cc1cccc(N(CCCl)CCCl)c1)NCCNc1nonc1/C(=N/O)Nc1ccc(F)c(Br)c1` had an IC50 in data set [11] of 130 nM. In addition, in data set [12], the EC50 came out at 270 nM.

Turning to `Clc1ccc(Nc2cn[nH]n2)cc1`, the Kd in data set [13] was determined as 2300 nM. Take `CC(C)CN(CC(C)C)c1ccc([C@H](C)CC(=O)O)cc1NCNc1nc(C(F)(F)F)ns1`: the IC50 in data set [14] came out at 5.9 nM; in data set [15], 39 nM. As to `c1ccc2c(c1)[nH]c1cnccc12` [NORHARMANE], the affinity in [16] corresponds to a Ki of 180000 nM. Regarding `C[C@@H](NC(=O)c1ccc(F)cc1)c1ccc2c(c1)CCN2C(=O)C1CCOCC1` [LY-3381916], inhibition in data set [17] was half-maximal at 7 nM (IC50). Take `CC1=C(CC(=O)c2sccc2C)C(=O)c2ccccc2C1=O`: the figures for the IC50 in data set [18] and in [19] were 3420 nM and over 40000 nM, respectively.

With `O=C(CSc1nnc2scc(-c3ccccc3)n12)Nc1ccc2c(c1)OCO2`, the IC50 in data set [20] came out at 3000 nM. In data set [3], `O=C1c2nnn(Cc3ccccc3)c2C(=O)c2nnn(Cc3ccccc3)c21` showed a half-inhibitory concentration (IC50) of 1 nM. Consider `C=C1OC2=C(C(=O)c3ccccc3C2=O)C1(C)C`, for which the IC50 in data set [12] amounted to 1010 nM. Compound `O=C1CCC(N2C(=O)c3cccc(NCCOCCOCCOCCOCCOCCOCCOCCNCCNc4nonc4/C(=N/O)Nc4ccc(F)c(Br)c4)c3C2=O)C(=O)N1` (stereo not drawn) returned a CC50 at 48 h in data set [21] of 37400 nM. Besides, in data set [22], half-maximal degradation (DC50) was put at 2840 nM. In the case of `Cc1c(C)n(CC(O)CNc2ccccc2)c2ccccc12` (stereo not drawn), in data set [23], the IC50 came to 11400 nM. Take `N#Cc1ccc(C(F)(F)F)c(SCC(=O)Nc2ccc(F)c(Cl)c2)n1`: in [24], the IC50 turned out to be 840 nM.
